{"source": "paper PMC7817688", "about": "“Identification of 3-chymotrypsin like protease (3CLPro) inhibitors as potential anti-SARS-CoV-2 agents” (Communications Biology, 2021)", "molecular_target": "SARS-CoV-2 3CLpro enzyme (Severe acute respiratory syndrome coronavirus 2, UniProt P0DTD1)", "experiment": "biochemical", "conditions": "for percent enzymatic activity, individual values / percent enzymatic activity, AVG: DMSO treated control = 100%, data of Figs. 2-4; for percent enzymatic activity, AVG: mean of 3 values", "key": {"[1]": {"conditions": "dose-dependent study, 0.048828 uM, individual values"}, "[2]": {"conditions": "dose-dependent study, 25 uM, individual values"}, "[3]": {"conditions": "dose-dependent study, 50 uM, individual values"}}, "note": "Several values for one entry are separate records, joined by “and”; a condition that tells them apart may be missing. Identical values can stand only once.", "data": [{"smiles": "Nc1nc(NC2CC2)c2ncn([C@H]3C=C[C@@H](CO)C3)c2n1", "note": "[Abacavir]", "values": [{"measurement": "percent enzymatic activity, individual values", "setting": "50 µM drug", "value": "85.8927% and 88.8256% and 90.5015% (2×)"}, {"measurement": "percent enzymatic activity, AVG", "setting": "50 µM drug", "value": 88.4066, "unit": "%"}]}, {"smiles": "COC(=O)N[C@H](C(=O)N[C@@H](Cc1ccccc1)[C@@H](O)CN(Cc1ccc(-c2ccccn2)cc1)NC(=O)[C@@H](NC(=O)OC)C(C)(C)C)C(C)(C)C", "note": "[Atazanavir]", "values": [{"measurement": "percent enzymatic activity, individual values", "setting": "50 µM drug", "value": "84.3318% and 88.0184% and 91.2442%"}, {"measurement": "percent enzymatic activity, AVG", "setting": "50 µM drug", "value": 87.8648, "unit": "%"}]}, {"smiles": "CC(C)c1c(C(=O)Nc2ccccc2)c(-c2ccccc2)c(-c2ccc(F)cc2)n1CC[C@@H](O)C[C@@H](O)CC(=O)O", "note": "[Atrovastatin]", "values": [{"measurement": "percent enzymatic activity, individual values", "setting": "50 µM drug", "value": "92.1569% and 107.843% and 99.0196%"}, {"measurement": "percent enzymatic activity, AVG", "setting": "50 µM drug", "value": 99.6732, "unit": "%"}]}, {"smiles": "CC(C)(C)NC(=O)N[C@H](C(=O)N1C[C@H]2[C@@H]([C@H]1C(=O)NC(CC1CCC1)C(=O)C(N)=O)C2(C)C)C(C)(C)C", "note": "(stereo partly drawn) [Boceprevir]", "values": [{"measurement": "percent enzymatic activity, individual values", "setting": "50 µM drug", "value": "54.8875% and 56.5635% and 59.0774%"}, {"measurement": "percent enzymatic activity, AVG", "setting": "50 µM drug", "value": 56.8428, "unit": "%"}, {"measurement": "% activity", "setting": "[1]", "value": 71.4825, "unit": "%"}, {"measurement": "activity at 0.048828 µM", "setting": "[1]", "value": 72.9, "unit": "%"}, {"measurement": "% activity", "setting": "dose-dependent study, 0.097656 uM, individual values", "value": "78.9417% and 76.1445%"}, {"measurement": "activity at 0.097656 µM", "setting": "dose-dependent study, 0.097656 uM, individual values, read-out: % activity", "value": 75.2, "unit": "%"}, {"measurement": "% activity", "setting": "dose-dependent study, 0.195313 uM, individual values", "value": 74.7459, "unit": "%"}, {"measurement": "activity at 0.195313 µM", "setting": "dose-dependent study, 0.195313 uM, individual values, read-out: % activity", "value": 73.3, "unit": "%"}, {"measurement": "% activity", "setting": "dose-dependent study, 0.390625 uM, individual values", "value": 72.4149, "unit": "%"}, {"measurement": "activity at 0.390625 µM", "setting": "dose-dependent study, 0.390625 uM, individual values, read-out: % activity", "value": 77.1, "unit": "%"}, {"measurement": "% activity", "setting": "dose-dependent study, 0.78125 uM, individual values", "value": "70.5501% and 71.9487%"}, {"measurement": "activity at 0.78125 µM", "setting": "dose-dependent study, 0.78125 uM, individual values, read-out: % activity", "value": 71, "unit": "%"}, {"measurement": "% activity", "setting": "dose-dependent study, 1.5625 uM, individual values", "value": "78.9417% and 72.4149%"}, {"measurement": "activity at 1.5625 µM", "setting": "dose-dependent study, 1.5625 uM, individual values, read-out: % activity", "value": 74.3, "unit": "%"}, {"measurement": "% activity", "setting": "dose-dependent study, 3.125 uM, individual values", "value": 84.5361, "unit": "%"}, {"measurement": "activity at 3.125 µM", "setting": "dose-dependent study, 3.125 uM, individual values, read-out: % activity", "value": 73.3, "unit": "%"}, {"measurement": "activity at 6.25 µM", "setting": "dose-dependent study, 6.25 uM, individual values, read-out: % activity", "value": 73.8, "unit": "%"}, {"measurement": "% activity", "setting": "dose-dependent study, 12.5 uM, individual values", "value": "70.0839% and 64.9557%"}, {"measurement": "activity at 12.5 µM", "setting": "dose-dependent study, 12.5 uM, individual values, read-out: % activity", "value": 61.2, "unit": "%"}, {"measurement": "% activity", "setting": "[2]", "value": "57.4965% and 56.0979%"}, {"measurement": "activity at 25 µM", "setting": "[2]", "value": 51.9, "unit": "%"}, {"measurement": "% activity", "setting": "[3]", "value": "41.6457% and 41.1795%"}, {"measurement": "activity at 50 µM", "setting": "[3]", "value": 37.4, "unit": "%"}, {"measurement": "% activity", "setting": "dose-dependent study, 100 uM, individual values", "value": "29.5245% and 31.8555%"}, {"measurement": "activity at 100 µM", "setting": "dose-dependent study, 100 uM, individual values, read-out: % activity", "value": 26.7, "unit": "%"}, {"measurement": "inhibitory effect towards 3CLpro enzymatic activity (in words)", "setting": "in vitro enzymatic assay at the tested doses", "value": "partial inhibitory effect"}, {"measurement": "inhibition at 50 µM", "setting": "read-out: inhibition of 3CLpro enzymatic activity, 50 µM drug", "value": 45, "unit": "%"}]}, {"smiles": "CN(C)C(=O)COC(=O)Cc1ccc(OC(=O)c2ccc(NC(=N)N)cc2)cc1", "note": "[Camostat]", "values": [{"measurement": "percent enzymatic activity, individual values", "setting": "50 µM drug", "value": "94.4701% and 101.843% and 102.304%"}, {"measurement": "percent enzymatic activity, AVG", "setting": "50 µM drug", "value": 99.5392, "unit": "%"}]}, {"smiles": "CCN(CC)CCCC(C)Nc1ccnc2cc(Cl)ccc12", "note": "(stereo not drawn) [Chloroquine]", "values": [{"measurement": "percent enzymatic activity, individual values", "setting": "50 µM drug, listed as Chloroquine Phosphate", "value": "103.986% and 93.4637% and 103.367%"}, {"measurement": "percent enzymatic activity, AVG", "setting": "50 µM drug", "value": 100.272, "unit": "%"}]}, {"smiles": "CC(C)(C)OC(=O)N[C@H]1CCCCC/C=C\\[C@@H]2C[C@@]2(C(=O)NS(=O)(=O)C2CC2)NC(=O)[C@@H]2C[C@@H](OC(=O)N3Cc4cccc(F)c4C3)CN2C1=O", "note": "[Danoprevir]", "values": [{"measurement": "percent enzymatic activity, individual values", "setting": "50 µM drug", "value": "70.073% and 72.9927% and 80.6569%"}, {"measurement": "percent enzymatic activity, AVG", "setting": "50 µM drug", "value": 74.5742, "unit": "%"}]}, {"smiles": "CC(C)CN(C[C@@H](O)[C@H](Cc1ccccc1)NC(=O)O[C@H]1CO[C@H]2OCC[C@H]21)S(=O)(=O)c1ccc(N)cc1", "note": "[Darunavir]", "values": [{"measurement": "percent enzymatic activity, individual values", "setting": "50 µM drug", "value": "90.3226% and 93.0876% and 98.6175%"}, {"measurement": "percent enzymatic activity, AVG", "setting": "50 µM drug", "value": 94.0092, "unit": "%"}]}, {"smiles": "CC(C)Nc1cccnc1N1CCN(C(=O)c2cc3cc(NS(C)(=O)=O)ccc3[nH]2)CC1", "note": "[Delavirdine (mesylate), Delavirdine]", "values": [{"measurement": "percent enzymatic activity, individual values", "setting": "50 µM drug", "value": "93.4344% and 97.6243% and 104.328%"}, {"measurement": "percent enzymatic activity, AVG", "setting": "50 µM drug", "value": 98.4623, "unit": "%"}]}, {"smiles": "COc1cc2c(cc1Cc1cccc(Cl)c1F)c(=O)c(C(=O)O)cn2[C@H](CO)C(C)C", "note": "[Elvitegravir]", "values": [{"measurement": "percent enzymatic activity, individual values", "setting": "50 µM drug", "value": "78.3509% and 80.4458% and 91.3395%"}, {"measurement": "percent enzymatic activity, AVG", "setting": "50 µM drug", "value": 83.3787, "unit": "%"}]}, {"smiles": "Cc1cc(C#N)cc(C)c1Oc1nc(Nc2ccc(C#N)cc2)nc(N)c1Br", "note": "[Etravirine]", "values": [{"measurement": "percent enzymatic activity, individual values", "setting": "50 µM drug", "value": "85.8927% and 97.6243% and 93.0155%"}, {"measurement": "percent enzymatic activity, AVG", "setting": "50 µM drug", "value": 92.1775, "unit": "%"}]}, {"smiles": "CO[C@@H]1[C@H](OC(=O)/C=C/C=C/C=C/C=C/C(=O)O)CC[C@]2(CO2)[C@H]1[C@@]1(C)O[C@@H]1CC=C(C)C", "note": "[Fumagillin]", "values": [{"measurement": "percent enzymatic activity, individual values", "setting": "50 µM drug", "value": "70.8091% and 76.2559% and 71.647%"}, {"measurement": "percent enzymatic activity, AVG", "setting": "50 µM drug", "value": 72.904, "unit": "%"}]}, {"smiles": "CCOC(=O)c1ccc(OC(=O)CCCCCNC(=N)N)cc1", "note": "[Gabexate]", "values": [{"measurement": "percent enzymatic activity, individual values", "setting": "50 µM drug", "value": "88.0184% and 104.147% and 90.7834%"}, {"measurement": "percent enzymatic activity, AVG", "setting": "50 µM drug", "value": 94.3164, "unit": "%"}]}]}
